Results published in ChEMBL document CHEMBL3217464, “Antimicrobial activity and mode of action of novel, N-terminal tagged tetra-peptidomimetics” (Medchemcomm, 2013).
≈ marks a conversion by molar mass, not a printed value. Calls of active or inactive are those of the source. The calls are words filed in the database; no cut-off is given here. Where a SMILES comes first, the peptide text is derived from it. [ ]: non-standard residue; d: D form. The star is where a group is joined. Benzoyl(4-(biphenyl-4-yl)) = O=C(c1ccc(-c2ccc(-c3ccccc3)cc2)cc1)*; Linoleoyl = CCCCC/C=C\C/C=C\CCCCCCCC(=O)*; NMeL = CN[C@@H](CC(C)C)C(=O)O; NMeV = CN[C@H](C(=O)O)C(C)C; X1 = Nc1ccc(/C=C/C(=O)*)cc1; Orn = NCCC[C@H](N)C(=O)O; 2Abz = Nc1ccccc1C(=O)O

Legend:
Acinetobacter baumannii = experiment: Antibacterial activity against Acinetobacter baumannii ATCC 19606 after 18 hrs by CLSI microdilution broth assay; format: functional; conditions: ATCC 19606, 18 h
[1] = Binding affinity to gram-negative outer membrane LPS micelles by circular dichroism spectrophotometry
Staphylococcus aureus [2] = experiment: Induction of membrane depolarization in methicillin-resistant Staphylococcus aureus ATCC 33591 by DiSC3(5) dye by fluorimetric assay; format: functional, organism-based
Pseudomonas aeruginosa = experiment: Antibacterial activity against Pseudomonas aeruginosa ATCC 25668 after 18 hrs by CLSI microdilution broth assay; format: functional; conditions: ATCC 25668, 18 h
[3] = Hemolytic activity against human erythrocytes assessed as hemoglobin release up to 500 ug/ml after 1 hr by ELISA; format: ADME, cell-based; conditions: erythrocyte
Staphylococcus aureus [4] = experiment: Induction of membrane depolarization in methicillin-resistant Staphylococcus aureus ATCC 33591 at 12.5 ug/ml by DiSC3(5) dye by fluorimetric assay; format: functional
Lipid bilayer [5] = experiment: Binding affinity to mammalian membrane mimic POPC SUVs assessed as blue shift in tryptophan emission maxima at 3 uM after 2 mins by spectrofluorimeter analysis
[6] = Stability of the compound assessed as compound digestion at 100 ug/ml after 24 hrs by RP-HPLC analysis in presence of proteinase-K; format: ADME; conditions: read-out: Drug degradation
Candida albicans = experiment: Antifungal activity against Candida albicans assessed as growth inhibition up to 125 ug/ml by disk diffusion method; format: functional, organism-based
Staphylococcus aureus [7] = experiment: Antibacterial activity against Staphylococcus aureus ATCC 29213 after 18 hrs by CLSI microdilution broth assay; format: functional; conditions: ATCC 29213, 18 h
Lipid bilayer [8] = experiment: Binding affinity to bacterial membrane mimic POPC/POPG (7:3 w/w) SUVs assessed as blue shift in tryptophan emission maxima at 3 uM after 2 mins by spectrofluorimeter analysis
Aspergillus fumigatus = experiment: Antifungal activity against Aspergillus fumigatus assessed as growth inhibition up to 125 ug/ml by disk diffusion method; format: functional, organism-based
Bacillus subtilis = experiment: Antibacterial activity against Bacillus subtilis ATCC 6633 after 18 hrs by CLSI microdilution broth assay; format: functional; conditions: ATCC 6633, 18 h
Staphylococcus aureus [9] = experiment: Antibacterial activity against methicillin-resistant Staphylococcus aureus ATCC 33591 after 18 hrs by CLSI microdilution broth assay; format: functional; conditions: ATCC 33591, 18 h
Staphylococcus aureus [10] = experiment: Induction of membrane depolarization in methicillin-resistant Staphylococcus aureus ATCC 33591 at 7.5 ug/ml by DiSC3(5) dye by fluorimetric assay; format: functional
[11] = Induction of membrane permeabilization in POPC/POPG (7:3 w/w) LUVs assessed as burst release of calcein dye at 5.68 ug/ml after 5 mins by spectrofluorimeter analysis
[12] = Stability of the compound assessed as compound digestion at 100 ug/ml after 10 hrs by RP-HPLC analysis in presence of proteinase-K; format: ADME; conditions: read-out: Drug degradation
Escherichia coli = experiment: Antibacterial activity against Escherichia coli ATCC 11775 after 18 hrs by CLSI microdilution broth assay; format: functional; conditions: ATCC 11775, 18 h
Staphylococcus aureus [13] = experiment: Induction of morphological alterations in methicillin-resistant Staphylococcus aureus ATCC 33591 assessed as cell clustering and ruptured membrane at 5XMIC after 30 mins by scanning electron microscopy; format: functional, organism-based
[14] = Induction of membrane permeabilization in POPC/POPG (7:3 w/w) LUVs assessed as graded leakage of encapsulated calcein dye at 41.01 ug/ml after 5 mins by spectrofluorimeter analysis
[15] = Hemolytic activity against human erythrocytes assessed as hemoglobin release at 500 ug/ml after 1 hr by ELISA; format: ADME, cell-based, Erythrocyte; conditions: read-out: Activity
Staphylococcus aureus [16] = experiment: Induction of morphological alterations in methicillin-resistant Staphylococcus aureus ATCC 33591 assessed as rough and damaged cell surface and formation of blebs and massive rupturing at 5XMIC after 30 mins by scanning electron microscopy; format: functional, organism-based
Lipid bilayer [17] = experiment: Binding affinity to bacterial membrane mimic PC:PG (7:3 w/w) LUVs by circular dichroism spectrophotometry
[18] = Induction of membrane permeabilization in POPC/POPG (7:3 w/w) LUVs assessed as leakage of encapsulated calcein dye at 14.01 ug/ml after 5 mins by spectrofluorimeter analysis
Lipid bilayer [19] = experiment: Binding affinity to mammalian membrane mimic POPC SUVs assessed as red shift in tryptophan emission maxima at 3 uM after 2 mins by spectrofluorimeter analysis

SMILES	MIC (Acinetobacter baumannii)	MIC (Pseudomonas aeruginosa)	Activity [3]	Activity (Staphylococcus aureus [4])	Tryptophan emission maximum blue shift (Lipid bilayer [5])	MIC (Staphylococcus aureus [7])	Activity (Lipid bilayer [8])	MIC (Bacillus subtilis)	MIC (Staphylococcus aureus [9])	Activity [11]	MIC (Escherichia coli)	further results
CCCCC/C=C\C/C=C\CCCCCCCC(=O)N[C@@H](CCCN)C(=O)N[C@@H](CCCN)C(=O)N[C@@H](Cc1c[nH]c2ccccc12)C(=O)N[C@@H](Cc1c[nH]c2ccccc12)C(N)=O (Linoleoyl-[Orn][Orn]WW-NH2)	2 µg/mL (≈ 2.27 µM)	2 µg/mL (≈ 2.27 µM)	Non-toxic	100%	2 nm	2 µg/mL (≈ 2.27 µM)	10 nm	4 µg/mL (≈ 4.54 µM)	4 µg/mL (≈ 4.54 µM)	72.3%	2 µg/mL (≈ 2.27 µM)	Activity [1]: Active; Activity (Staphylococcus aureus [2]): Dose-dependent effect; metabolised at 24 h, 100 ug/ml [6]: 36%; growth inhibition (GI) (Candida albicans): inactive; growth inhibition (GI) (Aspergillus fumigatus): inactive; Activity (Staphylococcus aureus [10]): 84%; metabolised at 10 h, 100 ug/ml [12]: 17%; Activity (Staphylococcus aureus [13]): Active
CN(C)[C@@H]1C(O)=C(C(N)=O)C(=O)[C@@]2(O)C(O)=C3C(=O)c4c(O)cccc4[C@@](C)(O)[C@H]3C[C@@H]12 [TETRACYCLINE]		0.3 µg/mL (≈ 0.675 µM)				0.3 µg/mL (≈ 0.675 µM)			> 50 µg/mL		0.3 µg/mL (≈ 0.675 µM)	
NCCC[C@H](NC(=O)c1ccccc1N)C(=O)N[C@@H](CCCN)C(=O)N[C@@H](Cc1c[nH]c2ccccc12)C(=O)N[C@@H](Cc1c[nH]c2ccccc12)C(N)=O (H-[2Abz][Orn][Orn]WW-NH2)	64 µg/mL (≈ 86.9 µM)	16 µg/mL (≈ 21.7 µM)	Non-toxic	8.9%	1 nm	64 µg/mL (≈ 86.9 µM)	5 nm	64 µg/mL (≈ 86.9 µM)	64 µg/mL (≈ 86.9 µM)		64 µg/mL (≈ 86.9 µM)	Activity [14]: 69.9%
NCCC[C@H](NC(=O)c1ccc(-c2ccc(-c3ccccc3)cc2)cc1)C(=O)N[C@@H](CCCN)C(=O)N[C@@H](Cc1c[nH]c2ccccc12)C(=O)N[C@@H](Cc1c[nH]c2ccccc12)C(N)=O ({Benzoyl(4-(biphenyl-4-yl))}-[Orn][Orn]WW-NH2)	2 µg/mL (≈ 2.29 µM)	4 µg/mL (≈ 4.58 µM)			2 nm	2 µg/mL (≈ 2.29 µM)	30 nm	2 µg/mL (≈ 2.29 µM)	8 µg/mL (≈ 9.15 µM)	76.4%	2 µg/mL (≈ 2.29 µM)	Activity (Staphylococcus aureus [2]): Dose-dependent effect; hemolysis at 1 h, 500 ug/ml [15]: 50%; growth inhibition (GI) (Candida albicans): inactive; growth inhibition (GI) (Aspergillus fumigatus): inactive; Activity (Staphylococcus aureus [16]): Active; Activity (Staphylococcus aureus [10]): 81%; metabolised at 10 h, 100 ug/ml [12]: 14%; Activity (Lipid bilayer [17]): Active
NCCC[C@H](NC(=O)[C@@H](N)CCCN)C(=O)N[C@@H](Cc1c[nH]c2ccccc12)C(=O)N[C@@H](Cc1c[nH]c2ccccc12)C(N)=O (H-[Orn][Orn]WW-NH2)	512 µg/mL (≈ 829 µM)	256 µg/mL (≈ 414 µM)	Non-toxic	5.6%	2 nm	128 µg/mL (≈ 207 µM)	3 nm	512 µg/mL (≈ 829 µM)			512 µg/mL (≈ 829 µM)	
NCCC[C@H](NC(=O)/C=C/c1ccc(N)cc1)C(=O)N[C@@H](CCCN)C(=O)N[C@@H](Cc1c[nH]c2ccccc12)C(=O)N[C@@H](Cc1c[nH]c2ccccc12)C(N)=O (X1-[Orn][Orn]WW-NH2)	64 µg/mL (≈ 83.9 µM)	16 µg/mL (≈ 21 µM)	Non-toxic	16.8%		64 µg/mL (≈ 83.9 µM)	2 nm	32 µg/mL (≈ 41.9 µM)	128 µg/mL (≈ 168 µM)	58.5%	32 µg/mL (≈ 41.9 µM)	Activity [18]: 68.3%; Activity (Lipid bilayer [19]): 2 nm
CN[C@@H](CC(C)C)C(=O)N[C@@H](CCCN)C(=O)N[C@@H](CCCN)C(=O)N[C@@H](Cc1c[nH]c2ccccc12)C(=O)N[C@@H](Cc1c[nH]c2ccccc12)C(N)=O (H-[NMeL][Orn][Orn]WW-NH2)	128 µg/mL (≈ 172 µM)	128 µg/mL (≈ 172 µM)	Non-toxic	18.9%	1 nm	128 µg/mL (≈ 172 µM)	4 nm	64 µg/mL (≈ 85.9 µM)	256 µg/mL (≈ 344 µM)		64 µg/mL (≈ 85.9 µM)	
CN[C@H](C(=O)N[C@@H](CCCN)C(=O)N[C@@H](CCCN)C(=O)N[C@@H](Cc1c[nH]c2ccccc12)C(=O)N[C@@H](Cc1c[nH]c2ccccc12)C(N)=O)C(C)C (H-[NMeV][Orn][Orn]WW-NH2)	64 µg/mL (≈ 87.6 µM)	128 µg/mL (≈ 175 µM)	Non-toxic	17.2%	0 nm	128 µg/mL (≈ 175 µM)	3 nm	128 µg/mL (≈ 175 µM)	256 µg/mL (≈ 350 µM)		256 µg/mL (≈ 350 µM)	Activity [14]: 41.8%
